Experimental data reported in patent publication US20120129875A1, “SUBSTITUTED QUINAZOLINES AS FUNGICIDES” (SYNGENTA CROP PROTECTION, LLC, priority 2009, published 2012).

System: Phaeosphaeria nodorum (Septoria nodorum)
Assay: Phaeosphaeria nodorum (Septoria nodorum) / wheat / leaf disc preventative (glume blotch)
Assay type: in vivo
Settings: Parastagonospora nodorum, foliar, wheat leaf segments cv. Kanzler on agar, inoculated 2 days after application, vs untreated control, read-out: disease control
Description: Phaeosphaeria nodorum (Septoria nodorum)/Wheat/Leaf Disc Preventative (Glume Blotch) Wheat leaf segments cv. Kanzler are placed on agar in a multiwell plate (24-well format) and sprayed with the formulated test compound diluted in water. The leaf disks are inoculated with a spore suspension of the fungus 2 days after application. The inoculated test leaf disks are incubated at 20° C. and 75% rh under a light regime of 12 h light/12 h darkness in a climate cabinet and the activity of a compound is assessed as percent disease control compared to untreated when an appropriate level of disease damage appears in untreated check leaf disks (5-7 days after application).

Row | Compound | pest or weed control at 200 ppm [%]
1 | Clc1cccc(-c2cccc(-c3ncc4ccccc4n3)n2)c1Cl [2/50] | ≥ 80
2 | COc1ccc(-c2cccc(-c3ncc4ccccc4n3)n2)cc1F [2/57] | ≥ 80
3 | N#Cc1ccccc1-c1cccc(-c2ncc3ccccc3n2)n1 [2/61] | ≥ 80
4 | Fc1cccc(F)c1-c1cccc(-c2ncc3ccccc3n2)n1 [2/104] | ≥ 80
5 | CC(=O)c1ccccc1-c1cccc(-c2ncc3ccccc3n2)n1 [2/105] | ≥ 80
6 | Cc1ccc(-c2cccc(-c3ncc4ccccc4n3)n2)c2ccccc12 [2/108] | ≥ 80
7 | O=Cc1c(F)ccc(-c2cccc(-c3ncc4ccccc4n3)n2)c1F [2/110] | ≥ 80
8 | O=Cc1ccc(-c2cccc(-c3ncc4ccccc4n3)n2)c(F)c1F [2/111] | ≥ 80
9 | O=[N+]([O-])c1ccccc1-c1cccc(-c2ncc3ccccc3n2)n1 [2/112] | ≥ 80
10 | COc1cccc(OC)c1-c1cccc(-c2ncc3ccccc3n2)n1 [2/113] | ≥ 80
11 | OCc1c(-c2cccc(-c3ncc4ccccc4n3)n2)ccc2ccccc12 [2/115] | ≥ 80
12 | OCc1cc2ccccc2cc1-c1cccc(-c2ncc3ccccc3n2)n1 [2/116] | ≥ 80
13 | OCc1cc(F)ccc1-c1cccc(-c2ncc3ccccc3n2)n1 [2/117] | ≥ 80
14 | c1cc(-c2ncc3ccccc3n2)nc(-c2cc3ccccc3c3ccccc23)c1 [2/119] | ≥ 80
15 | COc1cc(-c2cccc(-c3ncc4ccccc4n3)n2)c(OC)cc1C [2/121] | ≥ 80
16 | Cc1c(F)cccc1-c1cccc(-c2ncc3ccccc3n2)n1 [2/124] | ≥ 80
17 | COc1ccc(C=O)cc1-c1cccc(-c2ncc3ccccc3n2)n1 [2/125] | ≥ 80
18 | Cc1c(Cl)cccc1-c1cccc(-c2ncc3ccccc3n2)n1 [2/126] | ≥ 80
19 | COc1cc(F)c(F)cc1-c1cccc(-c2ncc3ccccc3n2)n1 [2/128] | ≥ 80
20 | COC(=O)c1ccccc1-c1cccc(-c2ncc3ccccc3n2)n1 [2/130] | ≥ 80
21 | COc1cc(F)c(-c2cccc(-c3ncc4ccccc4n3)n2)c(F)c1 [2/131] | ≥ 80
22 | Fc1cc(F)c(-c2cccc(-c3ncc4ccccc4n3)n2)c(F)c1 [2/132] | ≥ 80
23 | Cc1cc(-c2cccc(-c3ncc4ccccc4n3)n2)c(C)cc1F [2/133] | ≥ 80

Row | Compound | pest or weed control at 200 ppm [%]
24 | Cc1ccc(-c2ncc3ccccc3n2)nc1-c1ccccc1N [3/102] | ≥ 80
25 | COC(=O)c1ccc(-c2nc(-c3ncc4ccccc4n3)ccc2C)cc1 [3/103] | ≥ 80
26 | Cc1ccc(-c2ncc3ccccc3n2)nc1-c1cccc([N+](=O)[O-])c1 [3/104] | ≥ 80
27 | Cc1ccc(-c2ncc3ccccc3n2)nc1-c1c(F)cccc1F [3/105] | ≥ 80
28 | Cc1ccc(-c2ncc3ccccc3n2)nc1-c1ccc2ccccc2c1 [3/106] | ≥ 80
29 | CCOc1ccc(-c2nc(-c3ncc4ccccc4n3)ccc2C)cc1 [3/107] | ≥ 80
30 | CC(=O)c1ccccc1-c1nc(-c2ncc3ccccc3n2)ccc1C [3/108] | ≥ 80
31 | Cc1ccc(-c2ncc3ccccc3n2)nc1-c1cccc(Cl)c1 [3/109] | ≥ 80
32 | COc1cc(-c2nc(-c3ncc4ccccc4n3)ccc2C)cc(OC)c1OC [3/110] | ≥ 80
33 | CCCc1ccc(-c2nc(-c3ncc4ccccc4n3)ccc2C)cc1 [3/114] | ≥ 80
34 | CC(=O)c1ccc(-c2nc(-c3ncc4ccccc4n3)ccc2C)cc1 [3/118] | ≥ 80
35 | Cc1ccc(-c2nc(-c3ncc4ccccc4n3)ccc2C)cc1[N+](=O)[O-] [3/120] | ≥ 80
36 | COC(=O)c1cccc(-c2nc(-c3ncc4ccccc4n3)ccc2C)c1 [3/123] | ≥ 80
37 | CSc1cccc(-c2nc(-c3ncc4ccccc4n3)ccc2C)c1 [3/125] | ≥ 80
38 | Cc1ccc(-c2ncc3ccccc3n2)nc1-c1ccc(CC#N)cc1 [3/126] | ≥ 80
39 | COC(=O)c1ccccc1-c1nc(-c2ncc3ccccc3n2)ccc1C [3/128] | ≥ 80
40 | Cc1ccc(-c2ncc3ccccc3n2)nc1-c1ccc(Cl)cc1C(F)(F)F [3/129] | ≥ 80
41 | CCc1ccc(-c2nc(-c3ncc4ccccc4n3)ccc2C)cc1 [3/131] | ≥ 80
42 | Cc1ccc(-c2ncc3ccccc3n2)nc1-c1cccc(C#N)c1 [3/132] | ≥ 80
43 | CC(=O)c1cccc(-c2nc(-c3ncc4ccccc4n3)ccc2C)c1 [3/133] | ≥ 80
44 | Cc1ccc(-c2ncc3ccccc3n2)nc1-c1cccc(-c2ccccc2)c1 [3/134] | ≥ 80
45 | COc1cccc(OC)c1-c1nc(-c2ncc3ccccc3n2)ccc1C [3/135] | ≥ 80
46 | COc1cc(F)c(F)cc1-c1nc(-c2ncc3ccccc3n2)ccc1C [3/137] | ≥ 80

Row | Compound | pest or weed control at 200 ppm [%]
47 | Cc1ccc(-c2ncc3ccccc3n2)nc1-c1ccc(Cl)c(F)c1Cl [3/138] | ≥ 80
48 | Cc1ccc(-c2ncc3ccccc3n2)nc1-c1ccc(CO)cc1 [3/139] | ≥ 80
49 | CCOCc1ccc(-c2nc(-c3ncc4ccccc4n3)ccc2C)cc1 [3/142] | ≥ 80
50 | c1ccc(Oc2cccc(-c3ncc4ccccc4n3)n2)cc1 [4/24] | ≥ 80
51 | Fc1ccc(Cc2cccc(-c3ncc4ccccc4n3)n2)c(Cl)c1 [6/20] | ≥ 80
52 | c1ccc(-c2ccccc2Cc2cccc(-c3ncc4ccccc4n3)n2)cc1 [6/21] | ≥ 80
53 | Fc1c(Cl)cccc1Cc1cccc(-c2ncc3ccccc3n2)n1 [6/22] | ≥ 80
54 | COc1ccc(Cc2cccc(-c3ncc4ccccc4n3)n2)c(Cl)c1Cl [6/23] | ≥ 80
55 | Fc1ccc(Cc2cccc(-c3ncc4ccccc4n3)n2)cc1F [6/24] | ≥ 80
56 | Fc1cccc(F)c1Cc1cccc(-c2ncc3ccccc3n2)n1 [6/26] | ≥ 80
57 | Clc1ccc(Cc2cccc(-c3ncc4ccccc4n3)n2)cc1Cl [6/27] | ≥ 80
58 | Fc1ccc(Cc2cccc(-c3ncc4ccccc4n3)n2)c(F)c1F [6/28] | ≥ 80
59 | Fc1cc(F)c(F)c(Cc2cccc(-c3ncc4ccccc4n3)n2)c1 [6/29] | ≥ 80
60 | COc1cccc(Cc2cccc(-c3ncc4ccccc4n3)n2)c1OC [6/30] | ≥ 80
61 | N#Cc1ccc(Cc2cccc(-c3ncc4ccccc4n3)n2)cc1 [6/31] | ≥ 80
62 | N#Cc1ccccc1Cc1cccc(-c2ncc3ccccc3n2)n1 [6/32] | ≥ 80
63 | N#Cc1c(Cl)cccc1Cc1cccc(-c2ncc3ccccc3n2)n1 [6/33] | ≥ 80
64 | Fc1ccc(Br)c(Cc2cccc(-c3ncc4ccccc4n3)n2)c1 [6/34] | ≥ 80
65 | Fc1cc(Br)ccc1Cc1cncc(-c2ncc3ccccc3n2)c1 [6/35] | ≥ 80
66 | Clc1ccc(Cc2cccc(-c3ncc4ccccc4n3)n2)c(Cl)c1 [6/37] | ≥ 80
67 | Cc1ccc(Cc2cccc(-c3ncc4ccccc4n3)n2)c(C)c1 [6/38] | ≥ 80
68 | COC(=O)Nc1ccc(Cc2cccc(-c3ncc4ccccc4n3)n2)cc1 [6/39] | ≥ 80
69 | Cc1cc(C)c(Cc2cccc(-c3ncc4ccccc4n3)n2)c(C)c1 [6/40] | ≥ 80

Row | Compound | pest or weed control at 200 ppm [%]
70 | Cc1ccc(C)c(Cc2cccc(-c3ncc4ccccc4n3)n2)c1 [6/41] | ≥ 80
71 | Cc1ccc(Cc2cccc(-c3ncc4ccccc4n3)n2)cc1Cl [6/42] | ≥ 80
72 | COc1ccc(OC)c(Cc2cccc(-c3ncc4ccccc4n3)n2)c1 [6/43] | ≥ 80
73 | Cc1ccccc1Cc1nc(-c2ncc3ccccc3n2)ccc1C [7/20] | ≥ 80
74 | COc1ccccc1Cc1nc(-c2ncc3ccccc3n2)ccc1C [7/21] | ≥ 80
75 | c1ccc(CCc2cccc(-c3ncc4ccccc4n3)n2)cc1 [10/17] | ≥ 80
76 | C(=C\c1cccc(-c2ncc3ccccc3n2)n1)/c1ccccc1 [10/20] | ≥ 80
77 | C(=C/c1cccc(-c2ncc3ccccc3n2)n1)/c1ccccc1 [10/21] | ≥ 80
78 | Cc1ccc(-c2ncc3ccccc3n2)nc1/C=C\c1ccccc1 [10/22] | ≥ 80
79 | Cc1ccc(-c2ncc3ccccc3n2)nc1/C=C/c1ccccc1 [10/23] | ≥ 80
80 | Cc1ccc(-c2ncc3ccc(Cl)cc3n2)nc1-c1ccccc1 [11/11] | ≥ 80
81 | Cc1ccc2cnc(-c3ccc(C)c(-c4ccccc4)n3)nc2c1 [11/12] | ≥ 80
82 | Cc1ccc(-c2ncc3cccc(Cl)c3n2)nc1-c1ccccc1 [11/13] | ≥ 80
83 | Cc1ccc(-c2nc(C)c3cccc(Cl)c3n2)nc1-c1ccccc1 [11/14] | ≥ 80
84 | Cc1ccc(-c2ncc3cccc(C)c3n2)nc1-c1ccccc1 [11/15] | ≥ 80
85 | Cc1ccc(-c2nc(C)c3cccc(C)c3n2)nc1-c1ccccc1 [11/16] | ≥ 80
86 | Cc1ccc(-c2ncc3c(C)cccc3n2)nc1-c1ccccc1 [11/18] | ≥ 80
87 | COc1ccc2nc(-c3ccc(C)c(-c4ccccc4)n3)ncc2c1 [11/19] | ≥ 80
88 | COc1ccc2nc(-c3ccc(C)c(-c4ccccc4)n3)nc(C)c2c1 [11/20] | ≥ 80
89 | Cc1ccc(-c2nc(C)c3c(C)cccc3n2)nc1-c1ccccc1 [11/21] | ≥ 80
90 | CCCCc1nc(-c2cccc(Cc3ccccc3)n2)nc2ccccc12 [12/5] | ≥ 80
